Measured values as given in ChEMBL document CHEMBL4507329, “Data for DCP probe BTZO-1” (2021).

Experiments:
[1] = biological target: Tyrosine-protein kinase Fer (Homo sapiens) (UniProt P16591); conditions: Compound concentration 1000.0 nM
[2] = biological target: Ribosomal protein S6 kinase alpha-2 (Homo sapiens) (UniProt Q15349); conditions: Compound concentration 1000.0 nM
[3] = biological target: Rho-associated protein kinase 2 (Homo sapiens) (UniProt O75116); conditions: Compound concentration 1000.0 nM
[4] = biological target: Focal adhesion kinase 1 (Homo sapiens) (UniProt Q05397); conditions: Compound concentration 1000.0 nM
[5] = biological target: Serine/threonine-protein kinase Nek1 (Homo sapiens) (UniProt Q96PY6); conditions: Compound concentration 1000.0 nM
[6] = biological target: Wee1-like protein kinase 2 (Homo sapiens) (UniProt P0C1S8); conditions: Compound concentration 1000.0 nM
[7] = biological target: Activin receptor type-1 (Homo sapiens) (UniProt Q04771); conditions: Compound concentration 1000.0 nM
[8] = biological target: Serine/threonine-protein kinase SIK3 (Homo sapiens) (UniProt Q9Y2K2); conditions: Compound concentration 1000.0 nM
Serine/threonine-protein kinase SIK3 (Homo sapiens), sequence (Q9Y2K2 whole entry, looked up): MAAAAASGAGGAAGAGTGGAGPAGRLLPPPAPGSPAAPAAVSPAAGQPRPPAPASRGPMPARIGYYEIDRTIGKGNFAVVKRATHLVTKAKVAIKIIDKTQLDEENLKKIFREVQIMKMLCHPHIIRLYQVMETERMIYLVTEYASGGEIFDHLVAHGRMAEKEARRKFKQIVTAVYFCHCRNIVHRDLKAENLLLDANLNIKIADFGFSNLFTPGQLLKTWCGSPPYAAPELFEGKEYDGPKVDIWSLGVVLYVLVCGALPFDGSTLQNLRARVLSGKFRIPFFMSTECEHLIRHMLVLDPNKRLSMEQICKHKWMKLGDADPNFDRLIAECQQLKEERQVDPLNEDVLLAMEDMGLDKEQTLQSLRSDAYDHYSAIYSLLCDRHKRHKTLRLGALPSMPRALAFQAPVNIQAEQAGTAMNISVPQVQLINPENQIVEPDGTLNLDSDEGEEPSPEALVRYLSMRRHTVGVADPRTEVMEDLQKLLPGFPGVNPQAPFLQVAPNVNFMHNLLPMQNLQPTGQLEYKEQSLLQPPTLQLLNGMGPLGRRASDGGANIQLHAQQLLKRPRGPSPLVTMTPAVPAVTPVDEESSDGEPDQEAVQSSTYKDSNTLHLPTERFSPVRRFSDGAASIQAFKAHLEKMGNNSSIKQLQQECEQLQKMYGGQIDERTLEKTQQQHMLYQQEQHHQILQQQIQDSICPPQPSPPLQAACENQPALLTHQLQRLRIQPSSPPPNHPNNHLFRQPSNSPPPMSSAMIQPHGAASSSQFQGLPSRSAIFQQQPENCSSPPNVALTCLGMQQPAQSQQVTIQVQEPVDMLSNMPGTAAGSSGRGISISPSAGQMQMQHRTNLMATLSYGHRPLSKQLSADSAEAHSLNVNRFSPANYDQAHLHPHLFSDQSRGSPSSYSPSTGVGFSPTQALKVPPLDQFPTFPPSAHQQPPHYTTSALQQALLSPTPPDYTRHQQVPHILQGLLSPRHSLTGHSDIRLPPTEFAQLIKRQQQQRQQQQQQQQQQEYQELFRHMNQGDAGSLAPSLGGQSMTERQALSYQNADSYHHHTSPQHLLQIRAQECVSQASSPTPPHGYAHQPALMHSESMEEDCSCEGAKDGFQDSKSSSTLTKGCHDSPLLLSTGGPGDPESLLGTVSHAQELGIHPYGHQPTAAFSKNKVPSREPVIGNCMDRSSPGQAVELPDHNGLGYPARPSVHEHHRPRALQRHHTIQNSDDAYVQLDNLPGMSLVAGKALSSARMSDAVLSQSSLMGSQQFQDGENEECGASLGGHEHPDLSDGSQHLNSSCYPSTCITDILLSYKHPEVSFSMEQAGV

[9] = biological target: Serine/threonine-protein kinase TAO1 (Homo sapiens) (UniProt Q7L7X3); conditions: Compound concentration 1000.0 nM
[10] = biological target: Ribosomal protein S6 kinase alpha-5 (Homo sapiens) (UniProt O75582); conditions: Compound concentration 1000.0 nM
[11] = biological target: Mitogen-activated protein kinase kinase kinase 1 (Homo sapiens) (UniProt Q13233); conditions: Compound concentration 1000.0 nM
[12] = biological target: Calcium/calmodulin-dependent protein kinase type II subunit gamma (Homo sapiens) (UniProt Q13555); conditions: Compound concentration 1000.0 nM
Calcium/calmodulin-dependent protein kinase type II subunit gamma (Homo sapiens), sequence (Q13555 whole entry): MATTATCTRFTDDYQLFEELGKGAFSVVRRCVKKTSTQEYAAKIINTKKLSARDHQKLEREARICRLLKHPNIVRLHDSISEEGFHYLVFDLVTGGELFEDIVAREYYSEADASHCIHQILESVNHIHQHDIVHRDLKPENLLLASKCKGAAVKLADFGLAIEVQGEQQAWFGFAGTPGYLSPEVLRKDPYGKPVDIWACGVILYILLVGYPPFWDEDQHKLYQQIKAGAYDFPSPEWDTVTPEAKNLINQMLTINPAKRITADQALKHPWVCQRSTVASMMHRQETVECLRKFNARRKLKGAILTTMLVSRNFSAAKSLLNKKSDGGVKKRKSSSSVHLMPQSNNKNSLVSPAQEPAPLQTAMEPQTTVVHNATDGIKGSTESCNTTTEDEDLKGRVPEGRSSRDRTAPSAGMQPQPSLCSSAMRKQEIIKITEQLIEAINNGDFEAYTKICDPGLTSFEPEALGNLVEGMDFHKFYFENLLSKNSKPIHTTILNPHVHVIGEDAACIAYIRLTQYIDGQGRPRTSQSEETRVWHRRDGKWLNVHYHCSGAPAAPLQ

[13] = biological target: D(3) dopamine receptor (Homo sapiens) (UniProt P35462); conditions: Compound concentration 10.0 uM
[14] = biological target: Phosphatidylinositol 4-phosphate 3-kinase C2 domain-containing subunit beta (Homo sapiens) (UniProt O00750); conditions: Compound concentration 1000.0 nM
[15] = biological target: Phosphatidylinositol 4,5-bisphosphate 3-kinase catalytic subunit alpha isoform (Homo sapiens) (UniProt P42336); conditions: Compound concentration 1000.0 nM
[16] = biological target: Serine/threonine-protein kinase tousled-like 1 (Homo sapiens) (UniProt Q9UKI8); conditions: Compound concentration 1000.0 nM
[17] = biological target: Peripheral plasma membrane protein CASK (Homo sapiens) (UniProt O14936); conditions: Compound concentration 1000.0 nM
[18] = biological target: Homeodomain-interacting protein kinase 2 (Homo sapiens) (UniProt Q9H2X6); conditions: Compound concentration 1000.0 nM
[19] = biological target: Beta-adrenergic receptor kinase 1 (Homo sapiens) (UniProt P25098); conditions: Compound concentration 1000.0 nM
[20] = biological target: NT-3 growth factor receptor (Homo sapiens) (UniProt Q16288); conditions: Compound concentration 1000.0 nM
[21] = biological target: Ephrin type-A receptor 7 (Homo sapiens) (UniProt Q15375); conditions: Compound concentration 1000.0 nM
Ephrin type-A receptor 7 (Homo sapiens), sequence (Q15375 28-998 limits assumed): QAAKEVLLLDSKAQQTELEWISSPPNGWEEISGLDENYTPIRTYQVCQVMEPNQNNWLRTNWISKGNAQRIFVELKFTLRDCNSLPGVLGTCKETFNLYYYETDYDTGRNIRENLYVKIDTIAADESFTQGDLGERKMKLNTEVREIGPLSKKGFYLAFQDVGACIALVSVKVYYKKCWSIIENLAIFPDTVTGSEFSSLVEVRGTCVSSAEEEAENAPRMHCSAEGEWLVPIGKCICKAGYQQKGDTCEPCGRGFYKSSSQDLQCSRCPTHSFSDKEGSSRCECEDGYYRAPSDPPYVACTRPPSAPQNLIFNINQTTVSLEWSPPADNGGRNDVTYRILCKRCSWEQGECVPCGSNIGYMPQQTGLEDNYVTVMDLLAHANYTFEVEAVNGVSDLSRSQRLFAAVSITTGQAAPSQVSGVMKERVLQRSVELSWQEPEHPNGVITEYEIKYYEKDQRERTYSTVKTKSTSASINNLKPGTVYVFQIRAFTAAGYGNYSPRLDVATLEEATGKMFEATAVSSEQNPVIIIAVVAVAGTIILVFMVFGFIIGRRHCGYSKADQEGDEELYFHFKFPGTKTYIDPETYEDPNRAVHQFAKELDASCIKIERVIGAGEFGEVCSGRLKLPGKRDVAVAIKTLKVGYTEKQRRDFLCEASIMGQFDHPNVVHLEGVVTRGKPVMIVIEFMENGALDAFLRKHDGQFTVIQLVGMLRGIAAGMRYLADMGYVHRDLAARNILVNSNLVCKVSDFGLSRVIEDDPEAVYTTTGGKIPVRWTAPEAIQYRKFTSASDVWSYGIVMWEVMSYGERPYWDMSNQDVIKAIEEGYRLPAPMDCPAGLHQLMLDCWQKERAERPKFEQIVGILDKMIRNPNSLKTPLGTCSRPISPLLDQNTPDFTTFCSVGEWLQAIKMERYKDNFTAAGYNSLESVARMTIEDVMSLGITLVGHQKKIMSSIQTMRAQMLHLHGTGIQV

[22] = biological target: Rhodopsin kinase GRK1 (Homo sapiens) (UniProt Q15835); conditions: Compound concentration 1000.0 nM
Rhodopsin kinase GRK1 (Homo sapiens), sequence (Q15835 whole entry): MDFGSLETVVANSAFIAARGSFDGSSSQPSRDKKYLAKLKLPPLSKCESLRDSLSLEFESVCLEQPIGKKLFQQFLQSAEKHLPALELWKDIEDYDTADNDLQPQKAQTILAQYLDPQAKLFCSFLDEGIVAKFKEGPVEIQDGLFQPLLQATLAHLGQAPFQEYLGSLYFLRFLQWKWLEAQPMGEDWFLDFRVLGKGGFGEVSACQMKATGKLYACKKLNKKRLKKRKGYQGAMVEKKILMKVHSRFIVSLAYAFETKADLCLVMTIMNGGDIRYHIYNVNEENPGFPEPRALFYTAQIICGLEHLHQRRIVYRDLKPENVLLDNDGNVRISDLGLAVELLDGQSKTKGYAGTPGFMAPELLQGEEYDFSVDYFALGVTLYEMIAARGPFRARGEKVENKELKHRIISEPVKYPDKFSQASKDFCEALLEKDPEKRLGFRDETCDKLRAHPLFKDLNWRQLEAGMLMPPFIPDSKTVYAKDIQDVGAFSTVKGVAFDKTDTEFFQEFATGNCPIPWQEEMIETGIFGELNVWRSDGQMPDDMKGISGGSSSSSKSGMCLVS

[23] = biological target: Rhodopsin kinase GRK7 (Homo sapiens) (UniProt Q8WTQ7); conditions: Compound concentration 1000.0 nM
[24] = biological target: Mitogen-activated protein kinase kinase kinase 11 (Homo sapiens) (UniProt Q16584); conditions: Compound concentration 1000.0 nM
[25] = biological target: Dual specificity protein kinase CLK2 (Homo sapiens) (UniProt P49760); conditions: Compound concentration 1000.0 nM
[26] = biological target: Serine/threonine-protein kinase RIO1 (Homo sapiens) (UniProt Q9BRS2); conditions: Compound concentration 1000.0 nM
[27] = system: Hepatocyte growth factor receptor (Homo sapiens), P08581 [Y1235D]; conditions: Compound concentration 1000.0 nM
[28] = biological target: Homeodomain-interacting protein kinase 4 (Homo sapiens) (UniProt Q8NE63); conditions: Compound concentration 1000.0 nM
Homeodomain-interacting protein kinase 4 (Homo sapiens), sequence (Q8NE63 whole entry): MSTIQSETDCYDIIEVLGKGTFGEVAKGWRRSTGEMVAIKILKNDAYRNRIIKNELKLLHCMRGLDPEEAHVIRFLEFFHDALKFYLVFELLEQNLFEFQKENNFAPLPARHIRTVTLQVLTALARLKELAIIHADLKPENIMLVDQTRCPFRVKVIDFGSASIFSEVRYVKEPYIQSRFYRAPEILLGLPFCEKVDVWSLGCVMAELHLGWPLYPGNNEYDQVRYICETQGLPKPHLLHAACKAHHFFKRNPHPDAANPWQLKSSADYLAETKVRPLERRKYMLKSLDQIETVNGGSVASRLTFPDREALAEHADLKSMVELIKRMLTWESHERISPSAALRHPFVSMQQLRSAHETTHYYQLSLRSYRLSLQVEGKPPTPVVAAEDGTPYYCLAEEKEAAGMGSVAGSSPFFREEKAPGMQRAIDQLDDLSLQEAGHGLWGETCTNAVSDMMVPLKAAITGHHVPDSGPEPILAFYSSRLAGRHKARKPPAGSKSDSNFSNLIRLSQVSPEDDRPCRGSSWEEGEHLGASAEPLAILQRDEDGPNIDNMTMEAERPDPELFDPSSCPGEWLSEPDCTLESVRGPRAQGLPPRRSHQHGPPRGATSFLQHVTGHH

[29] = biological target: Ephrin type-B receptor 1 (Homo sapiens) (UniProt P54762); conditions: Compound concentration 1000.0 nM
[30] = biological target: Serine/threonine-protein kinase MARK2 (Homo sapiens) (UniProt Q7KZI7); conditions: Compound concentration 1000.0 nM
[31] = biological target: Bone morphogenetic protein receptor type-2 (Homo sapiens) (UniProt Q13873); conditions: Compound concentration 1000.0 nM
[32] = biological target: Serine/threonine-protein kinase DCLK3 (Homo sapiens) (UniProt Q9C098); conditions: Compound concentration 1000.0 nM
[33] = biological target: Tyrosine-protein kinase Tec (Homo sapiens) (UniProt P42680); conditions: Compound concentration 1000.0 nM
[34] = biological target: Dual specificity mitogen-activated protein kinase kinase 1 (Homo sapiens) (UniProt Q02750); conditions: Compound concentration 1000.0 nM
[35] = biological target: Transient receptor potential cation channel subfamily M member 6 (Homo sapiens) (UniProt Q9BX84); conditions: Compound concentration 1000.0 nM
[36] = system: Epidermal growth factor receptor (Homo sapiens), P00533 [UNDEFINED MUTATION]; conditions: Compound concentration 1000.0 nM
[37] = system: Tyrosine-protein kinase ABL1 (Homo sapiens), P00519 [F317L]; conditions: Compound concentration 1000.0 nM
[38] = biological target: Activin receptor type-1B (Homo sapiens) (UniProt P36896); conditions: Compound concentration 1000.0 nM
[39] = system: Phosphatidylinositol 4,5-bisphosphate 3-kinase catalytic subunit alpha isoform (Homo sapiens), P42336 [H1047L]; conditions: Compound concentration 1000.0 nM
[40] = biological target: Serine/threonine-protein kinase/endoribonuclease IRE1 (Homo sapiens) (UniProt O75460); conditions: Compound concentration 1000.0 nM
[41] = biological target: Serine/threonine-protein kinase TAO2 (Homo sapiens) (UniProt Q9UL54); conditions: Compound concentration 1000.0 nM
[42] = biological target: Rho-associated protein kinase 1 (Homo sapiens) (UniProt Q13464); conditions: Compound concentration 1000.0 nM
[43] = biological target: Protein kinase C theta type (Homo sapiens) (UniProt Q04759); conditions: Compound concentration 1000.0 nM
[44] = biological target: Ephrin type-A receptor 5 (Homo sapiens) (UniProt P54756); conditions: Compound concentration 1000.0 nM
[45] = biological target: Casein kinase I isoform delta (Homo sapiens) (UniProt P48730); conditions: Compound concentration 1000.0 nM

Tyrosine-protein kinase Fer (Homo sapiens), sequence (P16591 whole entry, looked up): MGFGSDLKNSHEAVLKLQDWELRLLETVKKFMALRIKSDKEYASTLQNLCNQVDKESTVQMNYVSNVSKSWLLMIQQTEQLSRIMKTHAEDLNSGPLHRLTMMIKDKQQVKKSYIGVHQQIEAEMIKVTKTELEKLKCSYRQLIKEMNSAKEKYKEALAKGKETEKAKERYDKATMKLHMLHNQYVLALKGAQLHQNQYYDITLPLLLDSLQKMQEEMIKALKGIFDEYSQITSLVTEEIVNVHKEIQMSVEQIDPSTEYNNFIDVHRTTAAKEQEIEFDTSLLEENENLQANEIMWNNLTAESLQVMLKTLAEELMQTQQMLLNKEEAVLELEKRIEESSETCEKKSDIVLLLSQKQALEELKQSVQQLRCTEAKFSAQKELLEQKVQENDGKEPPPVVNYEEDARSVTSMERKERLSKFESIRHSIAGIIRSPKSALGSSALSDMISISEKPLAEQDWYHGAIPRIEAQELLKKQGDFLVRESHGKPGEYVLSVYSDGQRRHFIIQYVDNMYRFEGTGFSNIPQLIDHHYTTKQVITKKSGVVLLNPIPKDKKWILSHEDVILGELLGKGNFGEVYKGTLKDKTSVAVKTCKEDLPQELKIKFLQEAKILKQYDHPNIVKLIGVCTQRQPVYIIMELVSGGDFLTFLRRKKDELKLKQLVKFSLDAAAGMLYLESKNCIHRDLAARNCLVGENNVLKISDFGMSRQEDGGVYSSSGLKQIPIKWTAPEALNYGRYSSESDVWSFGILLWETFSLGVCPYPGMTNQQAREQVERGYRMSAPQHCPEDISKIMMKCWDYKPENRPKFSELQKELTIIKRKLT

O=c1nc(-c2ccccn2)sc2ccccc12 [BTZO-1]
inactive: residual activity [1] 94% | residual activity [2] 100% | residual activity [3] 94% | residual activity [4] 90% | residual activity [5] 100% | residual activity [6] 100% | residual activity [7] 79% | residual activity [8] 85% | residual activity [9] 92% | residual activity [10] 94% | residual activity [11] 65% | residual activity [12] 96% | inhibition [13] 13.6% | residual activity [14] 83% | residual activity [15] 100% | residual activity [16] 93% | residual activity [17] 84% | residual activity [18] 76% | residual activity [19] 65% | residual activity [20] 72% | residual activity [21] 80% | residual activity [22] 76% | residual activity [23] 89% | residual activity [24] 100% | residual activity [25] 80% | residual activity [26] 85% | residual activity [27] 100% | residual activity [28] 85% | residual activity [29] 88% | residual activity [30] 78% | residual activity [31] 100% | residual activity [32] 97% | residual activity [33] 82% | residual activity [34] 100% | residual activity [35] 77% | residual activity [36] 100% | residual activity [37] 100% | residual activity [38] 100% | residual activity [39] 76% | residual activity [40] 100% | residual activity [41] 73% | residual activity [42] 100% | residual activity [43] 90% | residual activity [44] 94% | residual activity [45] 81%

O=C1NC(c2ccccn2)Sc2ccccc21 (stereo not given) [BTZO-4]
inactive: residual activity [1] 84% | residual activity [2] 97% | residual activity [3] 67% | residual activity [4] 79% | residual activity [5] 100% | residual activity [6] 85% | residual activity [7] 82% | residual activity [8] 70% | residual activity [9] 96% | residual activity [10] 95% | residual activity [11] 55% | residual activity [12] 98% | inhibition [13] 27.8% | residual activity [14] 86% | residual activity [15] 91% | residual activity [16] 94% | residual activity [17] 71% | residual activity [18] 80% | residual activity [19] 58% | residual activity [20] 81% | residual activity [21] 72% | residual activity [22] 81% | residual activity [23] 86% | residual activity [24] 94% | residual activity [25] 95% | residual activity [26] 80% | residual activity [27] 96% | residual activity [28] 70% | residual activity [29] 90% | residual activity [30] 92% | residual activity [31] 80% | residual activity [32] 69% | residual activity [33] 75% | residual activity [34] 100% | residual activity [35] 64% | residual activity [36] 100% | residual activity [37] 100% | residual activity [38] 99% | residual activity [39] 59% | residual activity [40] 100% | residual activity [41] 71% | residual activity [42] 82% | residual activity [43] 76% | residual activity [44] 85% | residual activity [45] 74%
